Patent EP2305680A2, “Novel salts of (1S,4R)-cis-4-[2-amino-6-(cyclopropylamino)-9H-purin-9-yl]-2-cyclopentene-1-methanol” (AUROBINDO PHARMA LIMITED, priority 2009, dated 2011)
Converted amounts (≈) assume the structure as drawn. Read-outs that look alike come from different tables or passages of the source.

Assay: saturation solubility in various solvent systems
Assay type: physicochemical
Experimental: Solubility is the property of a solid, liquid, or gaseous chemical substance called solute to dissolve in a liquid solvent to form a homogeneous solution of the solute in the solvent. […] The saturation solubility of the compounds according to the present invention is measured in various solvent systems including simulated gastric fluid, pH 4.5 buffer, pH 6.8 buffer solution and pH 7.2 buffer solution. The compounds according to the present invention show better solubility as compared to abacavir sulphate in all solvent systems. Table- 1: Comparison of saturation solubility of Abacavir malonate with Abacavir sulphate (marketed salt)

[1] = solvent: pH 4.5 Sodium acetate buffer
[2] = solvent: pH 6.8 Phosphate buffer
[3] = solvent: pH 7.2 Phosphate buffer

Row | SMILES | Solubility (0.01n hcl, solvent: O.O1N HC1, read-out: Solubility) | Solubility (0.1n hcl, simulated gastric fluid, thermodynamic from solid, solvent: O.1N HC1, read-out: Solubility) | Solubility (solvent: Water) | Solubility [1] | Solubility [2] | Solubility [3] | Solubility (0.1 N HCl, simulated gastric fluid, thermodynamic from solid, solvent: O.1N HC1, read-out: Solubility) | Solubility (water, thermodynamic from solid, solvent: Water, read-out: Solubility)
1 | Nc1nc(NC2CC2)c2ncn([C@H]3C=C[C@@H](CO)C3)c2n1 [Abacavir Malonate, (1S,4R)-4-[2-AMINO-(6-CYCLOPROPYLAMINO)-9H-PURIN-9-YL]-2-CYCLOPENTENE-1-METHANOL MALONATE] | 733 mg/mL (≈ 2560 mM) | 368 mg/mL (≈ 1290 mM) | 116.2 mg/mL (≈ 406 mM) | 403.6 mg/mL (≈ 1410 mM) | 425.2 mg/mL (≈ 1480 mM) | 453.5 mg/mL (≈ 1580 mM) |  | 
2 | Nc1nc(NC2CC2)c2ncn([C@H]3C=C[C@@H](CO)C3)c2n1 [Abacavir Sulphate, reference compound] |  |  |  | 112.6 mg/mL | 89.5 mg/mL | 124.0 mg/mL | 93.1 mg/mL | 89.2 mg/mL
